PubChem BioAssay AID1189 (EPA DSSTox, 2008)
Activity calls are given as the source filed them.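 Rule for the calls: active = a tumor-causing dose value with its tumor site reported for any sex and species group of a rodent or other animal cancer study; inconclusive = only studies judged inadequate by the national testing program; inactive = tested in at least one study, none positive.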 Peptide text beside a SMILES is read from it.

Assay: DSSTox (CPDBAS) Carcinogenic Potency Database Summary SingleCellCall Results
Conditions: animal chronic carcinogenicity bioassays, CPDB summary call
Outline: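 Categorical carcinogenicity call compiled from published chronic rodent and other animal cancer bioassays; based on the most positive result across experiments for each sex-species, assigned on minimal evidence for or against activity.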

Row | SMILES | outcome
1 | CC(=O)Nc1ccc(-c2ccccc2)cc1O | inactive; active
2 | CC1(C)C(=O)Nc2ccc(C3=NNC(=O)CC3)cc21 | active
3 | NC(=S)NNC=O | inactive
4 | O=CC1CO1 (stereo not given) | inactive
5 | COP(=S)(OC)Oc1ccc(SC)c(C)c1 | inactive
6 | O=C1N(CCO)CCN1/N=C/c1ccc([N+](=O)[O-])o1 | active
7 | IC(I)I | inactive
8 | [O]=[Nb](=[O])[OH] | inactive
9 | CCCCC1(COC(=O)CCC(=O)O)C(=O)N(c2ccccc2)N(c2ccccc2)C1=O | inactive
10 | CC(=O)N(O)c1ccc2c(c1)Cc1ccccc1-2 | active; inactive
11 | CC(=O)CN(CCO)N=O | active
12 | [O-][Br+2]([O-])O | active
13 | CCN(CC)CC#CC(C)(C)OC(=O)C(O)(c1ccccc1)C1CCCCC1 (stereo not given) | inactive; active
14 | CC(C)C[C@H]1C(=O)N2CCC[C@H]2[C@]2(O)O[C@](NC(=O)[C@@H]3C=C4c5cccc6[nH]c(Br)c(c56)C[C@H]4N(C)C3)(C(C)C)C(=O)N12 | active
15 | CC(=O)Nc1ccc(N=Nc2cc(C)ccc2O)cc1 | active; inactive
16 | COP(=O)(OC)OC=C(Cl)Cl | active
17 | NC(=O)CCCCn1ccc(NC(N)=NCC(F)(F)F)n1 | active; inactive
18 | CC(Cl)(Cl)Cl | inactive
19 | C=CC(=O)NCO | active; inactive
20 | Nc1nc(N)nc(N)n1 | active
21 | CCC(Cl)CCC(Cl)C(Cl)CC(Cl)C(Cl)C(Cl)CCl (stereo not given) | active
22 | C=C(F)F | inactive
23 | O=P(O)(O)O | inactive; active
24 | C/C=C/C(=O)Oc1c(C(C)CCCCCC)cc([N+](=O)[O-])cc1[N+](=O)[O-] (stereo not given) | inactive

Row | SMILES | outcome
25 | CN(C)N=O | active
26 | CCCNC(=O)NS(=O)(=O)c1ccc(Cl)cc1 | inactive
27 | O=C1Nc2ccc(Cl)cc2C(c2ccccc2)=NC1O (stereo not given) | active
28 | ClC1=C(Cl)[C@]2(Cl)[C@@H]3[C@H]4C[C@H]([C@@H]5O[C@H]45)[C@@H]3[C@@]1(Cl)C2(Cl)Cl | inactive
29 | C[C@]12CC[C@H](O)CC1=CC[C@@H]1[C@@H]2CC[C@]2(C)C(=O)CC[C@@H]12 | active
30 | Nc1nc(=S)c2ncn([C@H]3C[C@H](O)[C@@H](CO)O3)c2[nH]1 | active
31 | CN(N=O)C(=O)Nc1nc2ccccc2s1 | active
32 | Nc1ccc(Sc2ccc(N)cc2)cc1 | active
33 | Cc1ccc(N)cc1 | active
34 | CN(CCCC(O)c1cccnc1)N=O (stereo not given) | active
35 | CC(C)N(C(=O)SC/C(Cl)=C/Cl)C(C)C | active; inactive
36 | CC(Oc1c(Cl)cccc1Cl)C1=NCCN1 (stereo not given) | inactive
37 | Cc1cccc(OCC(O)CNC(C)(C)C)c1C (stereo not given) | inactive
38 | O=NN1CCCC1 | active; inactive
39 | CCCCC(CC)COC(=O)c1ccccc1C(=O)OCC(CC)CCCC (stereo not given) | active
40 | OCCN(CCO)C(=S)S | active
41 | O=C1c2ccccc2C(=O)c2c(O)cccc21 | active
42 | O=S1OCC2C(CO1)C1(Cl)C(Cl)=C(Cl)C2(Cl)C1(Cl)Cl (stereo not given) | inactive; active
43 | O=P(=O)O | inactive
44 | CCOC(=O)[C@H](CCc1ccccc1)N[C@@H](C)C(=O)N1Cc2ccccc2C[C@H]1C(=O)O | inactive; active
45 | Cc1ccc2ccccc2c1 | inactive; active
46 | c1ccccc1 | active
47 | O=C1OC(=O)c2ccccc21 | inactive
48 | CC1(C)C(=O)NC(=O)NC1=O | inactive; active

Row | SMILES | outcome
49 | Nc1ccc2nc3ccccn3c2n1 | active; inactive
50 | C[C@]12C=CC(=O)C=C1CC[C@@H]1[C@@H]2[C@@H](O)C[C@@]2(C)[C@H]1CC[C@]2(O)C(=O)COC(=O)CCCc1ccc(N(CCCl)CCCl)cc1 | active
51 | O=C(Nc1ccc2c(c1)Cc1ccccc1-2)C(F)(F)F | active
52 | OCC(CO)(CBr)CBr | active
53 | CCOC(=O)/C=C\C(=O)OCC | inactive; active
54 | CC(C(O)c1ccccc1)N(C)N=O (stereo not given) | active
55 | O=C(O)CCCc1ccc(N(CCCl)CCCl)cc1 | active
56 | Nc1cccc2ccccc12 | active
57 | C=CCO | inactive; active
58 | O=C(O)CN(CC(=O)O)CC(=O)O | active
59 | C[C@H]1CCCCN1N=O | active
60 | N[C@@H](CCC(=O)NNc1ccc(C(=O)O)cc1)C(=O)O | active; inactive
61 | CCN(CC)C(=O)Nc1ccc(OCC(O)CNC(C)(C)C)c(C(C)=O)c1 (stereo not given) | inactive; active
62 | ClC1(Cl)C2(Cl)C3(Cl)C4(Cl)C(Cl)(Cl)C5(Cl)C3(Cl)C1(Cl)C5(Cl)C24Cl (stereo not given) | active; inactive
63 | NNC(=O)c1ccncc1 | active; inactive
64 | CC(CN1CC(=O)NC(=O)C1)N1CC(=O)NC(=O)C1 (stereo not given) | active
65 | N=C1C=CC(=C(c2ccc(N)cc2)c2ccc(N)cc2)C=C1 | active
66 | O=NN(CCO)CCO | active; inactive
67 | COc1ccc2c3c1O[C@H]1[C@@H](O)C=C[C@H]4[C@@H](C2)N(C)CC[C@@]341 | inactive
68 | Clc1ccc(-c2cccc(Cl)c2Cl)c(Cl)c1 | active
69 | Clc1ccc(C(c2ccc(Cl)cc2)C(Cl)Cl)cc1 | active
70 | O=C(OOC(=O)c1ccccc1)c1ccccc1 | inactive
71 | Oc1ccc(Cl)cc1Cl | inactive
72 | NNC(=O)c1cccnc1 | active

Row | SMILES | outcome
73 | CC(=O)c1ccc(S(=O)(=O)NC(=O)NC2CCCCC2)cc1 | inactive
74 | COC(=O)[C@H](Cc1ccccc1)NC(=O)[C@@H](N)CC(=O)O (H-Asp-Phe-OMe) | inactive
75 | Cc1ccc([N+](=O)[O-])cc1N | active
76 | CC(C)CCCCCCOC(=O)c1ccccc1C(=O)OCCCCCCC(C)C | active; inactive
77 | CCCCCCCCCCCN(C)N=O | active; inactive
78 | O=C([O-])c1cc(N=Nc2ccc(-c3ccc(N=Nc4c(O)ccc(N=Nc5cc(S(=O)(=O)[O-])ccc5[O-])c4[O-])cc3)cc2)ccc1O.[Cu+2].[Na+].[Na+] | active; inactive
79 | CC(C)COC(=O)c1ccc(O)cc1 | inactive
80 | CN(CCCC(=O)O)N=O | active
81 | COc1ccc(N)c(OC)c1 | inactive
82 | CCCl | active; inactive
83 | CC1SC(C)N(N=O)C(C)S1 (stereo not given) | active
84 | CN(C)CCO | inactive; active
85 | S=C=NCCCCCCc1ccccc1 | inactive
86 | CC(=O)Nc1ccc(OCC(O)CNC(C)C)cc1 (stereo not given) | inactive
87 | S=C([S-])NCCNC(=S)[S-].[Mn+2] | active
88 | CCCCN(N=O)C(N)=O | active
89 | Nc1ccc2cc3ccc(N)cc3nc2c1 | inactive
90 | C#C[C@]1(O)CC[C@H]2[C@@H]3CCc4cc(OC)ccc4[C@H]3CC[C@@]21C | inactive
91 | O=C(O)/C=C/c1ccc(O)c(O)c1 | active
92 | O=[N+]([O-])/C=C/c1ccccc1 | inactive
93 | S=C=NCCCc1ccccc1 | inactive
94 | CCC1(c2ccccc2)C(=O)NCNC1=O | active
95 | CN(N=O)c1ncnc2c1ncn2[C@@H]1O[C@H](CO)[C@@H](O)[C@H]1O | active
96 | CCOP(=S)(OCC)Oc1ccc([N+](=O)[O-])cc1 | inactive; active

Row | SMILES | outcome
97 | [O]=[Cr](=[O])([OH])[O][Cr](=[O])(=[O])[OH] | active
98 | CC[C@H]1OC(=O)C[C@@H](O)[C@H](C)[C@@H](O[C@@H]2O[C@H](C)[C@@H](O[C@H]3C[C@@](C)(O)[C@@H](O)[C@H](C)O3)[C@H](N(C)C)[C@H]2O)[C@@H](CC=O)C[C@@H](C)C(=O)/C=C/C(C)=C/C1CO[C@@H]1O[C@H](C)[C@@H](O)[C@@H](OC)[C@H]1OC (stereo not given in full) | inactive
99 | Nc1ccc(-c2ccccc2)cc1O | inactive
100 | Nc1cc(Cl)cc(C(=O)O)c1Cl | active; inactive
101 | Cn1cc(C(=O)O)c(=O)c2ccc(/C=C/c3ccc([N+](=O)[O-])o3)nc21 | active; inactive
102 | CC(=O)Nc1ccc(-c2ccccc2)cc1 | active
103 | CC1=C[C@H]2O[C@@H]3[C@H](O)C[C@@](C)(C34CO4)[C@@]2(CO)[C@H](O)C1=O (stereo not given in full) | inactive; active
104 | CC(C)(OCc1ccc(-c2ccc(Cl)cc2)cc1)C(=O)O | active
105 | O=S(=O)(O)NC1CCCCC1 | active
106 | COc1ccc(CN(CCN(C)C)c2ccccn2)cc1 | active; inactive
107 | O=C1O[C@@H](CN2CCOCC2)CN1/N=C/c1ccc([N+](=O)[O-])o1 | active
108 | CCN(Cc1cccc(S(=O)(=O)O)c1)c1ccc(C(=C2C=CC(=[N+](CC)Cc3cccc(S(=O)(=O)O)c3)C=C2)c2ccc(O)cc2S(=O)(=O)[O-])cc1 | inactive
109 | c1ccc2cc(Nc3ccc(Nc4ccc5ccccc5c4)cc3)ccc2c1 | inactive; active
110 | CC1(C)[C@@H](O)CC[C@]2(C)[C@H]3C(=O)C=C4[C@@H]5C[C@@](C)(C(=O)O)CC[C@]5(C)CC[C@@]4(C)[C@]3(C)CC[C@@H]12 | inactive
111 | C[N+](=O)[O-] | active
112 | O.O.O.O.O.O.O.O=S(=O)([O-])[O-].[Co+2] | active
113 | O=C(O)c1cc(Oc2ccc(C(F)(F)F)cc2Cl)ccc1[N+](=O)[O-] | active
114 | CCN(Cc1cccc(S(=O)(=O)O)c1)c1ccc(C(=C2C=CC(=[N+](CC)Cc3cccc(S(=O)(=O)[O-])c3)C=C2)c2ccc(S(=O)(=O)O)cc2)cc1 | active
115 | O=NN(CCO)CC(O)CO (stereo not given) | active
116 | CC(=O)OC/C=C(\C)CCC=C(C)C | inactive
117 | O=C1c2cccc(O)c2C(=O)c2c(O)cccc21 | active
118 | S=C(SSSSSSC(=S)N1CCCCC1)N1CCCCC1 | inactive
119 | CC(C)(Oc1ccc(C2CC2(Cl)Cl)cc1)C(=O)O (stereo not given) | active
120 | O=C1CCN([C@@H]2O[C@H](CO)[C@@H](O)[C@H]2O)C(=O)N1 | inactive
